Measured values published in ChEMBL document CHEMBL5257111, “Ribosome-targeting antibiotics and resistance via ribosomal RNA methylation” (RSC Med Chem, 2023).

Columns and labels:
[1] = Binding affinity to Enterococcus faecalis ErmAM methyltransferase assessed as inhibition constant
[2] = biological target: T1, Catechol O-methyltransferase (Homo sapiens, UniProt P21964); experiment: Inhibition of S-COMT (unknown origin)
T1 sequence (P21964 whole entry): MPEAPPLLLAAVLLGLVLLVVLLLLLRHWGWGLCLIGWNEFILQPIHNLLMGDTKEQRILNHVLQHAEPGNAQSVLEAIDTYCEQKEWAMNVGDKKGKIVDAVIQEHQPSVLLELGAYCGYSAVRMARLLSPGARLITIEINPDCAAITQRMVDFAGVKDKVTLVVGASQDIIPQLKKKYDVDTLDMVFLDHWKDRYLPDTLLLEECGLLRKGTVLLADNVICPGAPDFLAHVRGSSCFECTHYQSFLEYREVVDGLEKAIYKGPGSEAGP

[3] = biological target: rRNA adenine N-6-methyltransferase (Bacillus subtilis, UniProt P13956); experiment: Inhibition of Bacillus subtilis ErmC' methyltransferase
Chain of rRNA adenine N-6-methyltransferase (P13956 whole entry): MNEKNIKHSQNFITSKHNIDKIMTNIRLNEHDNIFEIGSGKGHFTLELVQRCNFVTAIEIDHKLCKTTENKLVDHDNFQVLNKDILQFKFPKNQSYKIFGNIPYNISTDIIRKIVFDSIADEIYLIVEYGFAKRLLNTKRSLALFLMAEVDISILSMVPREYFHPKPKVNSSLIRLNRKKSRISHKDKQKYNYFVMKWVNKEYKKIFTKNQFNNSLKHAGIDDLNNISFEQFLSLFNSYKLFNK

[4] = system: Acinetobacter baumannii; experiment: Antibacterial activity against Acinetobacter baumannii assessed as reduction in bacterial growth by broth microdilution method; format: functional
[5] = system: Escherichia coli; experiment: Antibacterial activity against Escherichia coli ATCC 8730 assessed as bacterial growth inhibition; format: functional
[6] = system: Klebsiella pneumoniae; experiment: Antibacterial activity against Klebsiella pneumoniae ATCC 10031 assessed as reduction in microbial growth; format: functional
[7] = system: Klebsiella aerogenes; experiment: Antibacterial activity against Enterobacter aerogenes ATCC 13048 assessed as reduction in bacterial growth; format: functional
[8] = system: Enterobacter cloacae; experiment: Antibacterial activity against Enterobacter cloacae ATCC 29893 assessed as reduction in microbial growth; format: functional
[9] = system: Citrobacter amalonaticus; experiment: Antibacterial activity against Citrobacter amalonaticus assessed as reduction in microbial growth; format: functional
[10] = system: Escherichia coli; experiment: Antimicrobial activity against Escherichia coli ATCC 8739 assessed as reduction in bacterial growth; format: functional
[11] = system: Escherichia coli; experiment: Antimicrobial activity against Escherichia coli ATCC 25922 assessed as bacterial growth inhibition; format: functional

**Q.** With `Nc1cccc(-c2nc(N)nc(NC3Cc4ccccc4C3)n2)c1` as the compound, how does the Ki [1] read?
**A.** 4 µM

**Q.** With `O=C(Nc1cccc(-c2nc3ccccc3[nH]2)c1)c1ccccc1` as the compound, how does the IC50 [2] read?
**A.** 26 µM

**Q.** Which IC50 [2] does the source give for `COc1ccc(C(=O)Nc2cccc(-c3nc4ccccc4[nH]3)c2)cc1` here?
**A.** 73 µM

**Q.** With `Nc1nc(NC2Cc3ccccc3C2)nc(N2CCC(C(=O)NCCc3c[nH]c4ccccc34)CC2)n1` as the compound, how does the Ki [1] read?
**A.** 2 µM

**Q.** Which IC50 [3] does the source give for `Cc1ccc(Sc2cc(C)c(C#N)c(Sc3ccc(C)cc3)n2)cc1` here?
**A.** 180 µM

**Q.** For `O=C1c2ccccc2C(=O)N1CN(CCCn1ccnc1)CN1C(=O)c2ccccc2C1=O`, which IC50 [3] is on record?
**A.** 300 µM

**Q.** Which IC50 [3] does the source give for `O=C(c1c[nH]c(=O)[nH]1)N1CCN(c2ccc(C(F)(F)F)cn2)CC1` here?
**A.** 100 µM

**Q.** With `O=C(c1cnc(Nc2ncccn2)s1)N1CCN(c2ccc(C(F)(F)F)cn2)CC1` as the compound, how does the IC50 [3] read?
**A.** 110 µM

**Q.** Which IC50 [3] does the source give for `C(=N\Nc1ncnc2c1nnn2Cc1ccccc1)/c1ccccc1` here?
**A.** 250 µM

**Q.** For `Cc1ccc(Nc2ncc(C(=O)N3CCN(c4ccc(C(F)(F)F)cn4)CC3)s2)nc1`, which IC50 [3] is on record?
**A.** 116 µM

**Q.** What does the source list for `NCC[C@H](O)C(=O)N[C@@H]1C[C@H](N)[C@@H](O[C@H]2O[C@H](CN)[C@@H](O)[C@H](O)[C@H]2O)[C@H](O)[C@H]1O[C@H]1O[C@H](CO)[C@@H](O)[C@H](N)[C@H]1O` [AMIKACIN]?
**A.** MIC [4]: > 256 µg/mL; MIC [5]: > 512 µg/mL; MIC [6]: > 512 µg/mL; MIC [7]: > 512 µg/mL; MIC [8]: > 512 µg/mL; MIC [9]: > 512 µg/mL

**Q.** With `NC[C@@H]1O[C@H](O[C@H]2[C@@H](O)[C@H](O[C@@H]3[C@@H](O)[C@H](N)C[C@H](N)[C@H]3O[C@H]3O[C@H](CN)[C@@H](O)[C@H](O)[C@H]3N)O[C@@H]2CO)[C@H](N)[C@@H](O)[C@@H]1O` [FRAMYCETIN] as the compound, how does the MIC [10] read?
**A.** > 256 µg/mL

**Q.** Which MIC [11] does the source give for `NC[C@H]1O[C@H](O[C@H]2[C@H](O)[C@@H](O[C@H]3O[C@H](CO)[C@@H](O)[C@H](N)[C@H]3O)[C@H](N)C[C@@H]2N)[C@H](O)[C@@H](O)[C@@H]1O` [KANAMYCIN] here?
**A.** > 256 µg/mL

**Q.** For `OC[C@H]1O[C@@H](n2cnc3c(NC4CCCC4)ncnc32)[C@H](O)[C@@H]1O` [N6-CYCLOPENTYLADENOSINE], which IC50 [3] is on record?
**A.** 80 µM

**Q.** What does the source list for `NC[C@H]1O[C@H](O[C@H]2[C@H](O)[C@@H](O[C@H]3O[C@H](CO)[C@@H](O)[C@H](N)[C@H]3O)[C@H](N)C[C@@H]2N)[C@H](N)C[C@@H]1O` [TOBRAMYCIN]?
**A.** MIC [5]: > 512 µg/mL; MIC [6]: > 512 µg/mL; MIC [7]: > 512 µg/mL; MIC [8]: > 512 µg/mL; MIC [9]: > 512 µg/mL

**Q.** What does the source list for GENTAMICIN?
**A.** MIC [5]: > 512 µg/mL; MIC [6]: > 512 µg/mL; MIC [7]: > 512 µg/mL; MIC [8]: > 512 µg/mL; MIC [9]: > 512 µg/mL; MIC [11]: > 256 µg/mL
